Some results are limits rather than exact numbers.

The assay deals with PIK3CG (human) (UniProt P48736). Kind of assay: Inhibition of PIK3CG Kinase Activity.
Chain of PIK3CG (human) (P48736 whole entry, looked up): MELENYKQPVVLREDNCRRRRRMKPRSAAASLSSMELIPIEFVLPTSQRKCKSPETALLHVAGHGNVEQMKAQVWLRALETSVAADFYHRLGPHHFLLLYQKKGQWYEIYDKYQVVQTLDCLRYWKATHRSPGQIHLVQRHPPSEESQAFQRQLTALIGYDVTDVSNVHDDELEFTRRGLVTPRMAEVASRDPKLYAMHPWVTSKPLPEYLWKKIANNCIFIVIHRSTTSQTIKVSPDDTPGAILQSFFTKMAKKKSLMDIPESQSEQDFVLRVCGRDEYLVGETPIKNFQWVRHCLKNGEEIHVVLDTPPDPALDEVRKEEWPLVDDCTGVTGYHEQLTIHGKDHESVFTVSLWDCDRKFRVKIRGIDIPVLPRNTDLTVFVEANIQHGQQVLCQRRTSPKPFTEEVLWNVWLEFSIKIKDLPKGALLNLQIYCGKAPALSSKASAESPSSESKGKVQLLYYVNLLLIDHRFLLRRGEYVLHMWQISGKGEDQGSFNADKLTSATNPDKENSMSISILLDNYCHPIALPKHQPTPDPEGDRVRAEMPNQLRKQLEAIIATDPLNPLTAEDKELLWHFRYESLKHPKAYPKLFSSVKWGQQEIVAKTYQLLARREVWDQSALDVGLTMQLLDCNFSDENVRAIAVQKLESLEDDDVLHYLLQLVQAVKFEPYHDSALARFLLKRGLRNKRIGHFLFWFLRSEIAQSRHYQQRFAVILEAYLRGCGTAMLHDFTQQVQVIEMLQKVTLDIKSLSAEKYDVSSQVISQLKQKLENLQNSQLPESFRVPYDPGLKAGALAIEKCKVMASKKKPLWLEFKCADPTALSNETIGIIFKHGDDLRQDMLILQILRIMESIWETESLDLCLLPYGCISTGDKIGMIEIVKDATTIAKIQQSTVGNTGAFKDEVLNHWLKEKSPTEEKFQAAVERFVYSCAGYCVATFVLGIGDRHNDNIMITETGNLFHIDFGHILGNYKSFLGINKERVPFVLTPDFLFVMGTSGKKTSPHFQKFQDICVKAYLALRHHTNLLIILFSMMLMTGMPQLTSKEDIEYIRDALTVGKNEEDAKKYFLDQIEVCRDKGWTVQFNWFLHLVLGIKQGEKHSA
As for `COc1cc(-c2ccc3c(n2)CN(c2ccc(OCC(F)(F)F)nc2)C3=O)cnc1OC`, the inhibition constant Ki is 100 to 490 nM.

On to `CC[C@]1(OC)c2nc(-c3cnc(OC)c(OC)c3)cc(C)c2C(=O)N1c1cnn(CC(F)(F)F)c1`, for which the Ki was below 100 nM.

On to `COc1ncc(-c2ccc3c(n2)C(C)N(c2cnn(CC(F)(F)F)c2)C3=O)cc1O` (stereo unspecified), for which the inhibition constant (Ki) was below 100 nM.

In the case of `CCc1cc(-c2cnc(OC)c(OC)c2)nc2c1C(=O)N(c1cnn(CC(F)(F)F)c1)C2(C)C`, the Ki is below 100 nM.

The compound `Cc1cncc(-c2cc(C)c3c(n2)CN(c2cnn(CC#N)c2)C3=O)c1` had an inhibition constant (Ki) below 100 nM.

The compound `CC[C@H]1c2nc(-c3cnc(OC)c(OC)c3)ccc2C(=O)N1c1cnn(CC(F)(F)F)c1` had an inhibitory constant (Ki) of 100 to 490 nM.

In the case of `CCOc1cc(-c2ccc3c(c2)CN(c2cnn(CC)c2)C3=O)cnc1OC`, the Ki is 100 to 490 nM.

As to `COCCOCCOc1ncc(-c2cc(C)c3c(n2)C(C)N(c2cnn(CC(F)(F)F)c2)C3=O)cc1OC` (stereo unspecified), the inhibition constant (Ki) was below 100 nM.

`COc1cc(-c2ccc3c(c2)CN(c2cccnc2)C3=O)cnc1OC` had a Ki of 100 to 490 nM.

`COc1cc(-c2cc3c(c(C)n2)C(=O)N(c2cnn(CC(F)(F)F)c2)C3C)cnc1OC` (stereo unspecified) had a Ki below 100 nM.

As for `COc1cncc(-c2cc(C)c3c(n2)C(C)(C)N(c2ccn([C@@H]4CCOC4)n2)C3=O)c1`, the inhibition constant Ki was 100 to 490 nM.

Regarding `CCOc1ccnc(N2Cc3nc(-c4cnc(OC)c(OC)c4)cc(C)c3C2=O)c1`, the inhibitory constant (Ki) was below 100 nM.

Consider `COc1cc(-c2ccc3c(c2)CN(c2cnn(CC(C)C)c2)C3=O)cnc1OC`, for which the Ki is 100 to 490 nM.

Compound `Cc1cc(-c2cncc(OC(F)F)c2)nc2c1C(=O)N(c1cnn(CC(F)F)c1)C2` displayed a Ki below 100 nM.

For the compound `Cc1cc(-c2cncc(S(=O)(=O)N(C)C)c2)nc2c1C(=O)N(c1cnn(CC(F)(F)F)c1)C21CCOC1` (stereo unspecified), the Ki is below 100 nM.

`COc1ncc(-c2cc(C)c3c(n2)CN(c2cnn(CC(F)(F)F)c2)C3=O)cc1OC1CCOCC1` gave a Ki below 100 nM.

For `COc1cc(-c2ccc3c(n2)CN(c2cnn(CC(C)C)c2)C3=O)cnc1OC`, the Ki was below 100 nM.

`Cc1cc(-c2cncc(OCC(F)F)c2)nc2c1C(=O)N(c1cnn(CC(F)(F)F)c1)C2(C)C`: the Ki was below 100 nM.

`COc1cc(-c2ccc3c(n2)CN(c2cnn(Cc4cc(C)on4)c2)C3=O)cnc1OC` showed a Ki below 100 nM.

For `COc1cc(-c2ccc3c(n2)[C@@H](C)N(c2ccn(CC(F)(F)F)n2)C3=O)cnc1OC`, the Ki is below 100 nM.

Turning to `COc1ncc(-c2ccc3c(n2)[C@@H](C)N(c2cnn(CC(F)(F)F)c2)C3=O)cc1O`, the inhibition constant (Ki) is below 100 nM.

Compound `COc1cc(-c2ccc3c(c2)CN(c2cnn(CCC#N)c2)C3=O)cnc1OC` showed a Ki below 100 nM.

Turning to `COc1cc(-c2cc(C)c3c(n2)CN(c2cnn(CC(F)(F)F)c2)C3=O)ccc1C`, the inhibitory constant (Ki) was below 100 nM.

`COc1cc(-c2ccc3c(n2)C(C)N(c2ccn(C[C@H](C)O)n2)C3=O)cnc1OC` (stereo partly specified) showed a Ki below 100 nM.

As for `COCc1cc(N2Cc3nc(-c4cnc(OC)c(OC)c4)ccc3C2=O)nn1C`, the inhibition constant (Ki) is below 100 nM.

As to `COc1cc(-c2cc(C)c3c(n2)C(C)(C)N(c2cnn(C[C@H](C)O)c2)C3=O)cnc1OC`, the inhibitory constant (Ki) was below 100 nM.

Compound `Cc1cc(-c2cncc(OC(F)F)c2)cc2c1C(=O)N(c1cnn(CC(F)(F)F)c1)C2` returned an inhibitory constant (Ki) below 100 nM.

Take `COCCOc1cc(-c2cc(C)c3c(n2)CN(c2cnn(CC(F)(F)F)c2)C3=O)cnc1OC`: the inhibition constant Ki is below 100 nM.

For `COc1cc(-c2ccc3c(n2)CN(c2cc(C)n(CC(F)(F)F)n2)C3=O)cnc1OC`, the Ki is below 100 nM.

In turn, `CCc1cc(N2Cc3nc(-c4cnc(OC)c(OC)c4)ccc3C2=O)nn1CC` gave a Ki below 100 nM.

The compound `CCn1cc(N2Cc3nc(-c4cnc(OC)c(OC)c4)cc(C)c3C2=O)nn1` came in with a Ki below 100 nM.

In turn, `CCO[C@@H]1c2nc(-c3cnc(OC)c(OC)c3)cc(C)c2C(=O)N1c1cnn(CC(F)(F)F)c1` had an inhibitory constant (Ki) below 100 nM.

Regarding `COc1ncc(-c2cc(C)c3c(n2)C(C)(C)N(c2cnn(CC(F)(F)F)c2)C3=O)cc1C(=O)NCCN(C)C`, the Ki was below 100 nM.

For the compound `COCCC1c2nc(-c3cnc(OC)c(OC)c3)cc(C)c2C(=O)N1c1cnn(CC(F)(F)F)c1` (stereo unspecified), the Ki is below 100 nM.

Compound `COc1cc(-c2cc(C)c3c(n2)CN(c2ccc(C(C)(C)O)nc2)C3=O)cnc1OC` returned an inhibition constant Ki below 100 nM.

Compound `COc1cc(-c2ccc3c(c2)CN(c2ccnc(C)c2)C3=O)cnc1OC` registered a Ki of 100 to 490 nM.

For `CCCOC1c2nc(-c3cnc(OC)c(OC)c3)cc(C)c2C(=O)N1c1cnn(CC(F)(F)F)c1` (stereo unspecified), the Ki is below 100 nM.

`COc1cc(-c2ccc3c(n2)CN(c2ccc(N4CCNCC4)nc2)C3=O)cnc1OC` yielded a Ki of 100 to 490 nM.

For `COc1cc(-c2cc(OC)c3c(n2)CN(c2cnn(CC(F)(F)F)c2)C3=O)cnc1OC`, the Ki is below 100 nM.

For the compound `C#CCNC(=O)c1cc(-c2cc(C)c3c(n2)C(C)(C)N(c2cnn(CC(F)(F)F)c2)C3=O)cnc1OC`, the inhibition constant Ki is below 100 nM.

Consider `Cc1cc(-c2cncc(OC(F)F)c2)nc2c1C(=O)N(c1cc[nH]n1)C2`, for which the Ki is below 100 nM.

Take `CCNC(=O)c1cc(-c2cc(C)c3c(n2)C2(COC2)N(c2cnn(CC(F)(F)F)c2)C3=O)cnc1C`: the Ki is below 100 nM.

Turning to `COCCOCCOc1cc(-c2cc(C)c3c(n2)CN(c2cnn(CC(F)(F)F)c2)C3=O)cnc1OC`, the Ki was below 100 nM.

`Cc1cc(-c2cnc(C)c(OCC(F)F)c2)nc2c1C(=O)N(c1ccn([C@H]3CCOC3)n1)C2` had a Ki below 100 nM.

Take `CCNC(=O)c1cc(-c2cc(C)c3c(n2)C(C)(C)N(c2cnn(CC(F)(F)F)c2)C3=O)cnc1C`: the inhibition constant Ki was below 100 nM.

Compound `Cc1cc(-c2cncc(OCC(F)(F)F)c2)nc2c1C(=O)N(c1cnn(CC(F)(F)F)c1)C2C` (stereo unspecified) had an inhibition constant Ki below 100 nM.

Regarding `COc1cc(-c2cc(C)c3c(n2)CN(c2cncc(OCC(F)(F)F)c2)C3=O)cnc1OC`, the Ki is below 100 nM.

In turn, `COc1cc(-c2ccc3c(c2)CN(c2cnn([C@@H](C)C#N)c2)C3=O)cnc1OC` had a Ki below 100 nM.

Consider `COc1cncc(-c2cc(C)c3c(n2)[C@H](C)N(c2ccn(CC(C)(C)O)n2)C3=O)c1`, for which the inhibitory constant (Ki) is below 100 nM.

Turning to `COc1cc(-c2cc(C)c3c(n2)CN(c2cscn2)C3=O)cnc1OC`, the inhibitory constant (Ki) was below 100 nM.

As for `CCn1cc(N2Cc3nc(-c4cnc(OC)c(OC)c4)ccc3C2=O)nn1`, the Ki is below 100 nM.

`CCOc1ncc(-c2ccc3c(n2)C(C)N(c2cnn(CC(F)(F)F)c2)C3=O)cc1OC` (stereo unspecified) returned a Ki below 100 nM.

On to `COc1cc(-c2cc(C)c3c(n2)CN(c2ccnc(OCC(F)F)c2)C3=O)cnc1OC`, for which the Ki was below 100 nM.

For `CCn1cc(N2Cc3cc(-c4cnc(OC)c(OC)c4)ccc3C2=O)cn1`, the inhibition constant (Ki) is below 100 nM.

`COc1cc(-c2ccc3c(n2)CN(c2cnn(CCC#N)c2)C3=O)cnc1OC` had an inhibition constant Ki below 100 nM.

In turn, `COc1cc(-c2ccc3c(n2)CN(c2ccn(CC#N)n2)C3=O)cnc1OC` registered an inhibition constant Ki below 100 nM.

`COc1cncc(-c2cc(C)c3c(n2)C(C)N(c2ccn(CC(C)(C)F)n2)C3=O)c1` (stereo unspecified) returned a Ki below 100 nM.

As to `Cc1cc(-c2cncc(OC(F)F)c2)nc2c1C(=O)N(c1cnn(CC(F)(F)F)c1)[C@H]2C`, the Ki is below 100 nM.

`CCn1ccc(N2C(=O)c3c(C)cc(-c4cncc(OC(F)F)c4)nc3C2C)n1` (stereo unspecified): the Ki is below 100 nM.

`CCn1cc(N2Cc3cc(-c4cnc(OC)nc4OC)ccc3C2=O)cn1` showed an inhibition constant Ki of 100 to 490 nM.

In turn, `C=C(F)Cn1cc(N2C(=O)c3c(C)cc(-c4cncc(OC)c4)nc3C2(C)C)cn1` had a Ki below 100 nM.

What is called Ki is a measure of affinity in units of concentration, obtained from inhibition or displacement. A higher Ki goes with weaker binding.

These data come from the Kinase Knowledgebase extract (Sharma et al. 2016).
